Experimental data as given in US20240246934A1, “QUINAZOLINE-BASED COMPOUND, COMPOSITION, AND APPLICATION OF QUINAZOLINE-BASED COMPOUND” (BEIJING SCITECH-MQ PHARMACEUTICALS LIMITED, priority 2021, published 2024).

What was measured:
[1] = system: NCI-N87 cells; assay: Inhibition of cell proliferation, CTG method, NCI-N87; format: cell-based; conditions: Homo sapiens, 72 hours, read-out: hNCI-N87 IC50
Source text: (§1) The present application examined the in vitro anti-proliferative activity of the compounds of the present disclosure against in vitro cultured BT474, NCI-N87, Ba/F3-EGFR-VIII and Ba/F3 HER2 A775_G776insYVMA and Ba/F3 EGFR D770_N771insSVD cell lines by CTG method.
(§2) Reagents and consumables: RPMI1640 (ThermoFisher, Cat. No. C11875500BT); fetal bovine serum (Hyclone, Cat. No. SV30087.03); 0.25% trypsin-EDTA (ThermoFisher, Cat. No. 25200-072); penicillin-streptomycin (Hyclone, Cat. No. SV30010); DMSO (Amresco, Cat. No. 0231-500ML); CTG assay kit (Promega, Cat. No. G924C); 96-well plate (Corning, Cat. No. 3603); multifunctional plate reader (Perkin Elmer, Cat. No. Envision)
(§3) Cell lines: BT474 (from the cell bank of Chinese Academy of Sciences), NCI-N87 (from ATCC), Ba/F3-EGFR-VIII, Ba/F3 HER2 A775_G776insYVMA and Ba/F3 EGFR D770_N771insSVD (all from KYinno Biotechnology (Beijing) Co., Ltd.); all of the above cells were cultured with RPMI1640 medium containing 10% fetal bovine serum, 100 U/mL penicillin, and 100 μg/mL streptomycin in the culture process.
1. The assay compound was dissolved with DMSO to form a stock solution and a gradient dilution was performed, followed by dilution with the corresponding medium to obtain a solution with 5-fold working concentration.
2. Cells in logarithmic growth phase were adjusted to specific cell densities by dilution with culture medium, and 80 μL of cell suspension was added to a 96-well plate, such that plating densities of cells of BT474, NCI-N87, Ba/F3-EGFR-VIII, Ba/F3 HER2 A775_G776insYVMA and Ba/F3 EGFR D770_N771insSVD were all 3000 cells/well. The cells of Ba/F3-EGFR-VIII, Ba/F3 HER2 A775_G776insYVMA and Ba/F3 EGFR D770_N771insSVD were used directly in the next step (treatment with compound), whereas the BT474 and NCI-N87 needed to be cultured overnight in a 37° C., 5% carbon dioxide gas incubator to adhere to the wall, and then treated with compounds.
3. 20 μL of compound solution was added to each well of the 96-well plate that had been inoculated with cells. The highest concentration of the assayed compound was 10 μM, 4-fold serial dilution, a total of 9 concentrations, and duplicate wells. A control group without compound was also set up.
(§4) 4. The cells were cultured for another 72 hours, and then cell viability was detected by CTG assay kit. Signal values were read with a multifunctional plate reader (Perkin Elmer). GraphPad Prism software was used to create a dose-response curve and IC50 was calculated.

[2] = biological target: EGFR^WT kinase (Homo sapiens, UniProt P00533); assay: EGFR^WT kinase assay (ULight/PT66 TR-FRET); format: biochemical
EGFR^WT kinase, sequence (P00533 25-1210): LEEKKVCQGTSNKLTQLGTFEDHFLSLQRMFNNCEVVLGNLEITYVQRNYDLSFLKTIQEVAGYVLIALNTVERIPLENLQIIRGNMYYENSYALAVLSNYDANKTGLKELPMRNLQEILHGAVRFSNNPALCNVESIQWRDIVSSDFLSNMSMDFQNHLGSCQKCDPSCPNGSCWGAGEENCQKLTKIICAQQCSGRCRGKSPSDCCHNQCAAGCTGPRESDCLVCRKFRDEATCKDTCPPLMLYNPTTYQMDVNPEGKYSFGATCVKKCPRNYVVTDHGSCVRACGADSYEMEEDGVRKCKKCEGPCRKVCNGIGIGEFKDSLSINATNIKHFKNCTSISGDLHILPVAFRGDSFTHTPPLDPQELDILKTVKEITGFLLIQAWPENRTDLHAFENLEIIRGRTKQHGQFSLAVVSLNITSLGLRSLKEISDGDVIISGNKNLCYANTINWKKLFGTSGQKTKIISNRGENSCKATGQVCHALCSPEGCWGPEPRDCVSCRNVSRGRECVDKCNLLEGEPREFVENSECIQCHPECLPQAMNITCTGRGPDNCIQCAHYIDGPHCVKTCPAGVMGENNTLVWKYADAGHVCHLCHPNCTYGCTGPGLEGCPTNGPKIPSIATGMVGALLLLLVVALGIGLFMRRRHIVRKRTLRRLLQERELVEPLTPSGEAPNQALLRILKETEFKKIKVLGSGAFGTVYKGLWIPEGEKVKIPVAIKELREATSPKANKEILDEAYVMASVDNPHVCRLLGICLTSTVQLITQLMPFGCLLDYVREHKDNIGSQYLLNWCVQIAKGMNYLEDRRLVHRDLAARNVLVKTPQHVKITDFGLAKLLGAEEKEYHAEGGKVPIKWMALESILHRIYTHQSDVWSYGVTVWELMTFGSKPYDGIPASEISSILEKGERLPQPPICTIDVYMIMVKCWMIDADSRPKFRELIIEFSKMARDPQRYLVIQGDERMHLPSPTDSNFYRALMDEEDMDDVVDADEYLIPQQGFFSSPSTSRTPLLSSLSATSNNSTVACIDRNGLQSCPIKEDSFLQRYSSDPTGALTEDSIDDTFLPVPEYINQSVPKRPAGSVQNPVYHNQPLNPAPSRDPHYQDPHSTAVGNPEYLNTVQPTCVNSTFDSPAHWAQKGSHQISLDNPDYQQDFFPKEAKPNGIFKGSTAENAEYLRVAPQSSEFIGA
Summary of the method: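 Enzyme preincubated 5 min with compound (11-point 3-fold series, duplicate), then ULight-JAK-1 (Tyr1023) peptide and ATP added at 4× stocks of 400 nM and 600 μM; 120 min reaction at room temperature. PT66 antibody TR-FRET read after 60 min; IC50 fitted from inhibition rates.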

[3] = system: BT474 cells; assay: Inhibition of cell proliferation, CTG method, BT474; format: cell-based; conditions: Homo sapiens, BT-474, 72 hours, read-out: hBT474 IC50
Source text: as §1, §2, §3
1. […]
as §4

[4] = Pharmacokinetics in SD rats, single intravenous injection and oral administration; format: in vivo, SD rat; conditions: for AUC(0-inf) / AUC(0-t) / Vd / half-life / bioavailability / Cmax / Tmax: SD, rat, whole blood; for bioavailability: PO 10 mg/kg vs IV 3 mg/kg, read-out: F % (bioavailability)
Summary of the method: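 SD rats received a single IV or oral dose of a solution formulation; the oral group was fasted overnight (>12 hrs) and fed 2 hrs post-dose, the IV group not fasted. Blood and brain were sampled at set times and analysed by LC/MS; CL, Vd, T1/2, Cmax, Tmax, AUC, MRT and F % come from plasma concentration-time data.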

[5] = NA: Exposure was too low to be counted
[6] = PO 10 mg/kg, NA: Exposure was too low to be counted

SMILES: COc1c(NC(=O)/C=C/[C@H]2CCCN2C)ccc2ncnc(Nc3ccc(OCc4ccccn4)c(Cl)c3)c12 [Example 4, (R,E)-N-(4-((3-chloro-4-(pyridin-2-ylmethoxy)phenyl)amino)-5-methoxyquinazolin-6-yl)-3-(1-methylpyrrolidin-2-yl)acrylamide]
- IC50 [1]: < 1 nM
- IC50 [2]: < 10 nM
- IC50 [3]: 5 to 10 nM
- Cl_obs ([4]; IV 3 mg/kg): 52.1 ± 9.3 mL/min/kg
- AUC(0-inf) ([4]; IV 3 mg/kg): 979 ± 161 ng·h/mL
- AUC(0-t) ([4]; IV 3 mg/kg): 968 ± 156 ng·h/mL
- Vd ([4]; IV 3 mg/kg): 20.2 ± 2.6 L/kg
- half-life ([4]; IV 3 mg/kg): 4.5 ± 0.21 h
- bioavailability [4, 5]: 27.6 ± 6.8%
- AUC(0-inf) [4, 6]: 902 ± 223 ng·h/mL
- AUC(0-t) [4, 6]: 888 ± 221 ng·h/mL
- Cmax [4, 6]: 65.7 ± 19.9 ng/mL
- Tmax [4, 6]: 5.33 ± 2.89 h
- half-life [4, 6]: 3.69 ± 0.31 h

SMILES: COCCCOc1c(NC(=O)/C=C/[C@H]2CCCN2C)ccc2ncnc(Nc3ccc(OCc4ccccn4)c(Cl)c3)c12 [Example 9, (R,E)-N-(4-((3-chloro-4-(pyridin-2-ylmethoxy)phenyl)amino)-5-(3-methoxypropoxy)quinazolin-6-yl)-3-(1-methylpyrrolidin-2-yl)acrylamide]
- IC50 [2]: < 10 nM
- Cl_obs ([4]; IV 3 mg/kg): 53.0 ± 6.7 mL/min/kg
- AUC(0-inf) ([4]; IV 3 mg/kg): 955 ± 130 ng·h/mL
- AUC(0-t) ([4]; IV 3 mg/kg): 949 ± 128 ng·h/mL
- Vd ([4]; IV 3 mg/kg): 18 ± 2.3 L/kg
- half-life ([4]; IV 3 mg/kg): 3.94 ± 0.18 h
- bioavailability [4, 5]: 34.9 ± 12.6%
- AUC(0-inf) [4, 6]: 1110 ± 403 ng·h/mL
- AUC(0-t) [4, 6]: 1100 ± 406 ng·h/mL
- Cmax [4, 6]: 80.3 ± 30.5 ng/mL
- Tmax [4, 6]: 5 ± 3.46 h
- half-life [4, 6]: 4.13 ± 0.57 h

SMILES: CCN1CCC[C@@H]1/C=C/C(=O)Nc1ccc2ncnc(Nc3ccc(OCc4ccccn4)c(Cl)c3)c2c1OC [Example 29, (R,E)-N-(4-((3-chloro-4-(pyridin-2-ylmethoxy)phenyl)amino)-5-methoxyquinazolin-6-yl)-3-(1-ethylpyrrolidin-2-yl)acrylamide]
- IC50 [2]: < 10 nM
- Cl_obs ([4]; IV 3 mg/kg): 54.0 ± 7.4 mL/min/kg
- AUC(0-inf) ([4]; IV 3 mg/kg): 938 ± 134 ng·h/mL
- AUC(0-t) ([4]; IV 3 mg/kg): 914 ± 129 ng·h/mL
- Vd ([4]; IV 3 mg/kg): 22.7 ± 2.4 L/kg
- half-life ([4]; IV 3 mg/kg): 4.86 ± 0.23 h
- bioavailability [4, 5]: 36.3 ± 3.4%
- AUC(0-inf) [4, 6]: 1130 ± 106 ng·h/mL
- AUC(0-t) [4, 6]: 1100 ± 107 ng·h/mL
- Cmax [4, 6]: 95.3 ± 16.5 ng/mL
- Tmax [4, 6]: 3.33 ± 3.21 h
- half-life [4, 6]: 4.63 ± 0.26 h
